# Measurements from BindingDB's records for doi:10.1021/bi0488799 (Glaxosmithkline, 2004).
# What was measured:
# Conditions in all cases: pH 5.5; 30 °C
# [1] = target: T1, Dimer of Gag-Pol polyprotein [489-587,I539V] (Human immunodeficiency virus 1, UniProt P04585, I539V); assay: Kinetic Competitive Displacement Assay
# T1 construct: 489-587
# Description: The method was a competitive displacement assay used to determine binding affinities of other inhibitors relative to that of GW0385. The inhibitor of unknown affinity was used to displace [3H]GW0385 from enzyme-bound [3H]GW0385 (E[3H]GW0385). From the concentration of E[3H]GW0385 at equilibrium, the concentrations of enzyme-bound and free inhibitors were calculated, and the ratio of the Ki value of the unknown to that of GW0385 was determined (Ki,unknown/Ki,GW0385).
# [2] = target: T2, Dimer of Gag-Pol polyprotein [489-587,L499I,L508Q,K509R,E524D,M525I,S526N,M535I,I539V,I543V,I551V,L552P,A560V,V571A,L579M] (Human immunodeficiency virus 1, UniProt P04585, A560V/E524D/I539V/I543V/I551V/K509R/L499I/L508Q/L552P/L579M/M525I/M535I/S526N/V571A); assay: Fluorometric Activity Assay
# T2 construct: 489-587
# Description: (§1) Enzymatic activity was determined with fluorogenic substrate in the presence and absence of inhibitor. The fluorescence increase due to hydrolysis of the substrate was monitored with an excitation filter of wavelength 340 nm and an emission filter of wavelength 420. Values for the inhibition constants (Ki) were determined by conventional steady-state kinetic techniques.
# [3] = target: T3, Dimer of Gag-Pol polyprotein [489-587,M535I,L552P,A560V,V571F,I573V] (Human immunodeficiency virus 1, UniProt P04585, A560V/I573V/L552P/M535I/V571F); assay: Fluorometric Activity Assay
# T3 construct: 489-587
# Description: as §1
# [4] = target: T4, Dimer of Gag-Pol polyprotein [489-587] (Human immunodeficiency virus 1, UniProt P12497); assay: Fluorometric Activity Assay
# T4 construct: 489-587
# Description: as §1
# [5] = target: T2, Dimer of Gag-Pol polyprotein [489-587,L499I,L508Q,K509R,E524D,M525I,S526N,M535I,I539V,I543V,I551V,L552P,A560V,V571A,L579M]; assay: GW0385 Assay
# Description: (§2) The assay method employed kinetic determinations of values for k1 and k-1, from which value of inhibition constant (Ki ) was determined (k-1/k1). The k1 is calculated from spectrofluorometric data in the presence of saquinavir. The k-1 is calculated from the time course for displacement of [3H]GW0385 from E[3H]GW0385 by nonlabeled GW0385.
# [6] = target: T1, Dimer of Gag-Pol polyprotein [489-587,I539V]; assay: GW0385 Assay
# Description: as §2
SMILES,Ki [1] [pM],Ki [2] [pM],Ki [3] [pM],Ki [4] [pM],Ki [5] [pM],Ki [6] [pM]
"CC(C)CN(C[C@@H](O)[C@H](Cc1ccc(OCc2ccccn2)cc1)NC(=O)O[C@H]1CO[C@H]2OCC[C@H]21)S(=O)(=O)c1ccc2c(c1)OCO2 [(3R,3aS,6aR)-hexahydrofuro[2,3-b]furan-3-yl N-[(2S,3R)-4-[2H-1,3-benzodioxole-5-(2-methylpropyl)sulfonamido]-3-hydroxy-1-[4-(pyridin-2-ylmethoxy)phenyl]butan-2-yl]carbamate]",2.6,1.7,–,–,–,–
"CC(C)CN(C[C@@H](O)[C@H](Cc1ccc(OCCc2cccs2)cc1)NC(=O)O[C@H]1CO[C@H]2OCC[C@H]21)S(=O)(=O)c1ccc2c(c1)OCO2 [(3R,3aS,6aR)-hexahydrofuro[2,3-b]furan-3-yl N-[(2S,3R)-4-[2H-1,3-benzodioxole-5-(2-methylpropyl)sulfonamido]-3-hydroxy-1-{4-[2-(thiophen-2-yl)ethoxy]phenyl}butan-2-yl]carbamate]",3.9,2.4,–,–,–,–
"CNC(=O)OCCCC(C)(C)CN(C[C@@H](O)[C@H](Cc1ccccc1)NC(=O)O[C@H]1CO[C@H]2OCC[C@H]21)S(=O)(=O)c1ccc2c(c1)OCO2 [(3R,3aS,6aR)-hexahydrofuro[2,3-b]furan-3-yl N-[(2S,3R)-4-[2H-1,3-benzodioxole-5-({2,2-dimethyl-5-[(methylcarbamoyl)oxy]pentyl})sulfonamido]-3-hydroxy-1-phenylbutan-2-yl]carbamate]",27,54.4,25,–,–,–
"CCOC(=O)NCCCCC(C)(C)CN(C[C@@H](O)[C@H](Cc1ccccc1)NC(=O)O[C@H]1CO[C@H]2OCC[C@H]21)S(=O)(=O)c1ccc2c(c1)OCO2 [(3R,3aS,6aR)-hexahydrofuro[2,3-b]furan-3-yl N-[(2S,3R)-4-[2H-1,3-benzodioxole-5-({6-[(ethoxycarbonyl)amino]-2,2-dimethylhexyl})sulfonamido]-3-hydroxy-1-phenylbutan-2-yl]carbamate]",4.6,1.2,4.3,–,–,–
CC(C)CN(C[C@@H](O)[C@H](Cc1ccccc1)NC(=O)O[C@H]1CCOC1)S(=O)(=O)c1ccc(N)cc1 [VX-478],–,–,–,57,–,–
Cc1nc(COc2ccc(C[C@H](NC(=O)O[C@H]3CO[C@H]4OCC[C@H]43)[C@H](O)CN(CC(C)C)S(=O)(=O)c3ccc4c(c3)OCO4)cc2)cs1 [[3H]GW0385],–,–,–,–,3.4,2
